Experimental data as given in ChEMBL document CHEMBL4011659, “Combining Elements from Two Antagonists of Formyl Peptide Receptor 2 Generates More Potent Peptidomimetic Antagonists” (J Med Chem, 2017).
Active and inactive are the calls of the source. The rule behind the calls is not given here.

Experiments:
[1] = target: T1, N-formyl peptide receptor 2 (Homo sapiens) (UniProt P25090); test: (§1) Antagonist activity at FPR2 in human peripheral blood polymorphonuclear neutrophils assessed as inhibition of WKYMVM-peptide induced ROS production preincubated for 5 mins followed WKYMVM-peptide stimulation by isoluminol/HRP-based chemiluminescence assay
T1 sequence (whole entry): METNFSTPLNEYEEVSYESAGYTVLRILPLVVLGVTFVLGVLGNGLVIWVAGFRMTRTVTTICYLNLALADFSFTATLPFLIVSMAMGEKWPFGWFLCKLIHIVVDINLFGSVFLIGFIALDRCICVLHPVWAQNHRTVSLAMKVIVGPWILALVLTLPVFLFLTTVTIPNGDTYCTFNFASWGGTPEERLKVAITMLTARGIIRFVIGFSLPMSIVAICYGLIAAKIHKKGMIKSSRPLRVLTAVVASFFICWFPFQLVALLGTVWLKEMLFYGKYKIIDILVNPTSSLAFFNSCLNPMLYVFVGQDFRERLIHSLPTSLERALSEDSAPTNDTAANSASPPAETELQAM

[2] = target: T2, fMet-Leu-Phe receptor (Homo sapiens) (UniProt P21462); test: Antagonist activity at FPR1 in human peripheral blood polymorphonuclear neutrophils assessed as inhibition of fMLF-induced ROS production at <500 nM preincubated for 5 mins followed fMLF stimulation by isoluminol/HRP-based chemiluminescence assay
T2 sequence (whole entry): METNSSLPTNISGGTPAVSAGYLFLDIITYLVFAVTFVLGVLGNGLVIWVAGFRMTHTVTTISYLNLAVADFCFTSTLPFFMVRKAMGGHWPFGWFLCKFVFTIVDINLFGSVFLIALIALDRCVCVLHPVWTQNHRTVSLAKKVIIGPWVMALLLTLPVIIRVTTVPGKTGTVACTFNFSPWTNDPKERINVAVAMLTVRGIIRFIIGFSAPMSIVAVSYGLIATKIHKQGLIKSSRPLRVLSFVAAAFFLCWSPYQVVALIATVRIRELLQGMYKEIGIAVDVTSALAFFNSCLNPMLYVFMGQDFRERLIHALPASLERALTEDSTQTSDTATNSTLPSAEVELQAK

[3] = target: T3, N-formyl peptide receptor 2 (Homo sapiens, UniProt P25090); test: as §1
T3 sequence (P25090 whole entry): T1 sequence (whole entry)

[4] = target: T2, fMet-Leu-Phe receptor (Homo sapiens); test: (§2) Antagonist activity at FPR1 in human peripheral blood polymorphonuclear neutrophils assessed as inhibition of fMIFL-induced ROS production at 500 nM preincubated for 5 mins followed fMIFL stimulation by isoluminol/HRP-based chemiluminescence assay
[5] = target: T2, fMet-Leu-Phe receptor (Homo sapiens); test: Antagonist activity at FPR1 in human peripheral blood polymorphonuclear neutrophils assessed as inhibition of fMLF-induced ROS production at 500 nM preincubated for 5 mins followed fMIFL stimulation by isoluminol/HRP-based chemiluminescence assay
[6] = target: T2, fMet-Leu-Phe receptor (Homo sapiens); test: as §2, with “N-(4-chlorophenyl)-N'-(5-isopropyl-1-methyl-3-oxo-2-phenyl-2,3-dihydro-1H-pyrazol-4-yl)urea-induced” for “fMIFL-induced”, “N-(4-chlorophenyl)-N'-(5-isopropyl-1-methyl-3-oxo-2-phenyl-2,3-dihydro-1H-pyrazol-4-yl)urea” for “fMIFL”
[7] = target: T1, N-formyl peptide receptor 2 (Homo sapiens); details: 100 nM
Description: Antagonist activity at FPR2 in human peripheral blood polymorphonuclear neutrophils assessed as inhibition of WKYMVM-induced ROS production at 100 nM preincubated for 5 mins followed Lau-Aoc-(Lys-betaNphe)6-NH2 stimulation by isoluminol/HRP-based chemiluminescence assay

[8] = target: T1, N-formyl peptide receptor 2 (Homo sapiens); details: 100 nM; remark: listed apart in the source
Description: Antagonist activity at FPR2 in human peripheral blood polymorphonuclear neutrophils assessed as inhibition of PSMalpha2-peptide induced ROS production at 100 nM preincubated for 5 mins followed PSMalpha2-peptide stimulation by isoluminol/HRP-based chemiluminescence assay

[9] = target: T1, N-formyl peptide receptor 2 (Homo sapiens); details: 100 nM; remark: listed apart in the source
Description: Antagonist activity at FPR2 in human peripheral blood polymorphonuclear neutrophils assessed as inhibition of F2Pal10-induced ROS production at 100 nM preincubated for 5 mins followed F2Pal10 stimulation by isoluminol/HRP-based chemiluminescence assay

[10] = target: T1, N-formyl peptide receptor 2 (Homo sapiens); details: 100 nM; remark: listed apart in the source
Description: Antagonist activity at FPR2 in human peripheral blood polymorphonuclear neutrophils assessed as inhibition of Lau-Aoc-(Lys-betaNphe)6-NH2-induced ROS production at 100 nM preincubated for 5 mins followed Lau-Aoc-(Lys-betaNphe)6-NH2 stimulation by isoluminol/HRP-based chemiluminescence assay

[11] = target: T1, N-formyl peptide receptor 2 (Homo sapiens); details: 100 nM; remark: listed apart in the source
Description: Displacement of Cy5-WKYMVM from FPR2 in human peripheral blood polymorphonuclear neutrophils at 100 nM preincubated for 10 mins followed by Cy5-WKYMVM addition measured after 60 mins by fluorescence based assay

[12] = target: T2, fMet-Leu-Phe receptor (Homo sapiens); test: Antagonist activity at FPR1 in human peripheral blood polymorphonuclear neutrophils assessed as inhibition of fMLF-induced ROS production at >= 500 nM preincubated for 5 mins followed fMLF stimulation by isoluminol/HRP-based chemiluminescence assay
Neutrophil = test: Inhibition of PMA-induced superoxide production in human peripheral blood polymorphonuclear neutrophils at 500 nM preincubated for 5 mins followed PMA stimulation by isoluminol/HRP-based chemiluminescence assay; assay type: functional, cell-based

Row | inhibition [1] | inhibition [2] | IC50 [3] [nM] | inhibition [4] | inhibition [5] | inhibition [6] | inhibition [7] | inhibition [8] | inhibition [9] | inhibition [10] | inhibition [11] | inhibition [12] | SMILES | inhibition (Neutrophil)
1 | Active | – | – | – | – | – | – | – | – | – | – | – | CCN(CC)c1ccc2c(-c3ccccc3C(=O)N[C@@H](CCC(N)=O)C(=O)N[C@@H](CCCNC(=N)N)C(=O)N[C@@H](CC(C)C)C(=O)N[C@@H](Cc3ccccc3)C(=O)N[C@@H](CCC(N)=O)C(=O)N[C@@H](C(=O)N[C@@H](CCCCN)C(=O)NCC(=O)N[C@@H](CCCNC(=N)N)C(=O)N[C@@H](CCCNC(=N)N)C(N)=O)C(C)C)c3ccc(=[N+](CC)CC)cc-3oc2c1 | –
2 | – | inactive | 15 | inactive | inactive | inactive | Active | Active | Active | Active | Active | – | CCN(CC)c1ccc2c(-c3ccccc3C(=O)N[C@@H](CCCCN)C(=O)N(CCC(=O)N[C@@H](CCCCN)C(=O)N(CCC(=O)N[C@@H](CCCCN)C(=O)N(CCC(=O)N[C@@H](CCCCN)C(=O)N(CCC(=O)N[C@@H](CCCCN)C(=O)N(CCC(=O)N[C@@H](CCCCN)C(=O)N(CCC(N)=O)Cc3ccccc3)Cc3ccccc3)Cc3ccccc3)Cc3ccccc3)Cc3ccccc3)Cc3ccccc3)c3ccc(=[N+](CC)CC)cc-3oc2c1 | –
3 | – | – | 94 | – | – | – | – | – | – | – | – | Active | CCN(CC)c1ccc2c(-c3ccccc3C(=O)N[C@@H](CCCCN)C(=O)N(CCC(=O)N[C@@H](CCCCN)C(=O)N(CCC(=O)N[C@@H](CCCCN)C(=O)N(CCC(=O)N[C@@H](CCCCN)C(=O)N(CCC(=O)N[C@@H](CCCCN)C(=O)N(CCC(=O)N[C@@H](CCCCN)C(=O)N(CCC(N)=O)Cc3ccc(C(F)(F)F)cc3)Cc3ccc(C(F)(F)F)cc3)Cc3ccc(C(F)(F)F)cc3)Cc3ccc(C(F)(F)F)cc3)Cc3ccc(C(F)(F)F)cc3)Cc3ccc(C(F)(F)F)cc3)c3ccc(=[N+](CC)CC)cc-3oc2c1 | Active
